According to patent US8362070B2, “Application of puerarin in the preparation of P2X3 mediated drugs for pain/nervous system diseases” (Nanchang University, priority 2009, dated 2013):

How the values were obtained:
P2X3 receptor = target: T1, P2X3 receptor (Rattus norvegicus, UniProt P49654); test: Whole-cell patch clamp of ATP or α,β-meATP activated current in DRG neurons of CCI rats; type: cell-based; details: for DRG neurons sensitive to exogenous ATP: ATP 1-1000 μmol/L; for α,β-meATP-activated electric current in DRG neurons: α,β-meATP 10 μmol/L
T1 construct: The method for neuron sample isolated from DRG of rats was briefly described as below; endogenous in cells; host or cells: acutely dissociated L4/L5 DRG neurons of SD rats
T1 sequence (P49654 1-397): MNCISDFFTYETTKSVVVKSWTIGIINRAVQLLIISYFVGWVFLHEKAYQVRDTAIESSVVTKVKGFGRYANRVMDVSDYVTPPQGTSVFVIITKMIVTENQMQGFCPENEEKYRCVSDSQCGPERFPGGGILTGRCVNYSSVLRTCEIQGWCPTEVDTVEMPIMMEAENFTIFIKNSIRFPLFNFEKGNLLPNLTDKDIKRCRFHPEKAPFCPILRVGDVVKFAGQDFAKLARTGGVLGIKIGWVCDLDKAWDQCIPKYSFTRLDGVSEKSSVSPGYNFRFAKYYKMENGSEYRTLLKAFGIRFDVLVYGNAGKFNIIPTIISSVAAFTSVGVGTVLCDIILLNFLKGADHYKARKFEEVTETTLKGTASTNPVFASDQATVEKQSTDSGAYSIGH
Description: The method for neuron sample isolated from DRG of rats was briefly described as below: the rats were knocked down and their skin in the back was cut open rapidly after decollation. The ribs that were connected to the spinal column at both sides were cut apart and the thoracolumbar spine was taken out and cut in half through the middle of the spine. The samples were kept in O2 saturated DMEM solution (Dubecco's Modified Eagle's medium), pH 7.40, and the osmotic pressure of this solution was 340 mOsm/kg. The sections L4 and L5 of nerve ganglion and connected nerve roots (dorsal nerve roots and ventral roots) as well as the spinal nerves were taken out inside the open vertebral canal, the connected nerves and adjacent connective tissue capsule were carefully removed by using fine corneal scissors and hairspring tweezer under an anatomical microscope, and the cleaned DRG should be cut into small pieces as far as possible and transferred to a culture flask, trypsin (type III, sigma) 0.5 g/L and collagenase (type IA, sigma) 1.0 g/L was then added, and the culture flask was incubated in a constant temperature shaking water bath (35 °C, 80 times/min) for 20-30 minutes, then proper amount of Soya beam trypsin inhibitor (type […]-s, Sigma) was added to stop the enzymatic digestion. The DRG cells after the above mentioned enzymatic and mechanical isolation were transferred to 35 mm culture dishes, and then they were kept still on the object stage of an inverted microscope for solution change for 30 minutes, subsequently the whole-cell patch clamp technique was utilized to record the effects of puerarin on ATP or α,β-meATP activated electric current. • (1) Carefully examining the connection and original setting of equipments in the experimental system. • (2) Turning on the power switch. • (3) Electrode installation: connecting the reference electrode, filling the glass electrode and then installing it on the electrode clamp holder. Notice: the electrode should not be over-filled; contacting the shielding can with hands before installing the electrodes in order to release the static electricity on the body. • (4) Phase boundary potential compensation and electrode resistance determination: filling solution in the microelectrode under the “searching” mode, adjusting the phase boundary potential compensation and measuring electrode resistance according to the responsive amplitude of electric current that was induced by pulsed voltage square wave. • (5) Cell sealing: adjusting the micro-operator to get the tip of the microelectrode close to the surface of the cell and a negative pressure is produced in the micro-electrode and thus the Giga-Ohm seal was formed. • (6) Rapid electric capacity compensation: adjusting the rapid electric capacity compensation and making the output signal free of ingredients of rapid electric capacitive current. • (7) Absorbing the cell membrane until it was disrupted: the working mode was switched to “forcipressure”. The membrane was absorbed until it was disrupted after the high resistance sealing was formed between the electrode and the cell (1-10 GΩ). The holding potential (H.P) was kept at −60 mV, and low pass membrane current was used (1 kHz, −3 dB). • (8) Slow capacitive compensation: adjusting the slow capacitive compensation and making the output signal free of ingredients of slow electric capacitive current. Tandem resistance compensation: adjusting the tandem resistance compensation until no shock was produced. The equipment for record of patch clamp was CEZ-2400 type patch clamp amplifier (Nihon-Kohden, Japan). The membrane was further absorbed until it was disrupted after the high resistance formed between the electrode and the cell membrane (1˜10 GΩ), and the capacitance and the tandem resistance compensation were adjusted. The holding potential (HP) was kept at −60 mV, low pass membrane current was used (1 kHz, −3 dB). The experimental results were traced by using the two-way recorder (LMS-2B, Chengdu). […]

P2X3 protein = P2X3 protein expression in dorsal root ganglion of burn rats (band density normalized to β-actin); type: in vivo, rat; details: n=3
Description: SD rats (their body weights were between 200±20 g) were randomly divided into the group I (sham back burn), the group II (Puerarin, intraperitoneal injection), the group III (superficial second degree back burn), the group IV (superficial second degree back burn+puerarin), the group V (control) and the group VI (superficial second degree back burn+Indocin). The rats in the group IV (superficial second degree back burn+puerarin) were subjected to intraperitoneal injection of puerarin (100 mg/kg) everyday for continuous three days 30 minutes before burn and after burn. The rats in the group VI (superficial second degree back burn+Indocin) were subjected to intraperitoneal injection of idomethine (4 mg/kg/d) everyday for continuous three days 30 minutes before burn and after burn. Results: the optical density scanned values for the interested bands that were detected on X-ray film were read by using Alpha Imager 2200 image analysis software, and the scanned values of β-actin for different groups were used to normalize the expression level of P2X3 in corresponding groups.

P2X3 mRNA = test: RT-PCR of P2X3 mRNA expression in dorsal root ganglion of burn rats; type: in vivo, rat; details: n=3
Description: SD rats (their body weights were between 200±20 g) were randomly divided into the group I (sham back burn), the group II (Puerarin, intraperitoneal injection), the group III (superficial second degree back burn), the group IV (superficial second degree back burn+puerarin), the group V (control) and the group VI (superficial second degree back burn+Indocin). The rats in the group IV (superficial second degree back burn+puerarin) were subjected to intraperitoneal injection of puerarin (100 mg/kg) 30 minutes before burn and after burn everyday for continuous three days. The rats in the group VI (superficial second degree back burn+Indocin) were subjected to intraperitoneal injection of idomethine (4 mg/kg/d) 30 minutes before burn and after burn everyday for continuous three days. Primer design: β-actin was selected as the internal reference and the sequences for the primers were as below: Gel image system was used to record the scanned values for spot density (average optical density) of target electrophoresis bands, and the ratio between P2X3 band and corresponding β-actin band was used as the relative amount of P2X3 mRNA expression.

[1] = superficial second degree back burn + drug (puerarin 100 mg/kg i.p., idomethine 4 mg/kg/d i.p., three days), burn 1.23±0.06, control 0.98±0.02
[2] = superficial second degree back burn + drug (puerarin 100 mg/kg i.p., idomethine 4 mg/kg/d i.p., three days), burn 1.04±0.03, control 0.91±0.03

Structure (SMILES)	ATP-activated electric current in DRG neurons in comparison to CCI group (P2X3 receptor; CCI rats + Indocin, p<0.05)	DRG neurons sensitive to exogenous ATP (P2X3 receptor; CCI rats + drug) [%]	α,β-meATP-activated electric current in DRG neurons (P2X3 receptor; CCI rats + drug)	protein expression level of P2X3 (after normalization with corresponding β-actin) (P2X3 protein; [1])	relative expression amount of P2X3 mRNA (after normalization with corresponding β-actin), RT-PCR (P2X3 mRNA; [2])	ATP-activated electric current in DRG neurons in comparison to the idomethine treatment group (P2X3 receptor; CCI rats + puerarin, p<0.05)	ATP-activated electric current in DRG neurons, difference from groups I, II and V (P2X3 receptor; CCI rats + puerarin, p>0.05)	DRG neurons sensitive to exogenous ATP (P2X3 receptor; puerarin alone, no CCI) [%]	α,β-meATP-activated electric current in DRG neurons (P2X3 receptor; puerarin alone, no CCI)	protein expression level of P2X3 (after normalization with corresponding β-actin) (P2X3 protein; puerarin alone i.p., no burn)	relative expression amount of P2X3 mRNA (after normalization with corresponding β-actin), RT-PCR (P2X3 mRNA; puerarin alone i.p., no burn)
COc1ccc2c(c1)c(CC(=O)O)c(C)n2C(=O)c1ccc(Cl)cc1 [Indocin, Indometacin]	decreased	89.7	extremely low inward current	1.14±0.03	0.97±0.02	–	–	–	–	–	–
O=c1c(-c2ccc(O)cc2)coc2c([C@@H]3O[C@H](CO)[C@@H](O)[C@H](O)[C@H]3O)c(O)ccc12 [puerarin]	–	87.5	extremely low inward current	0.93±0.02	0.90±0.02	lower	not significant	89.2	extremely low inward current	0.97±0.02	0.89±0.02
